Source: patent US8952024B2, “Herbicidal pyrimidone derivatives” (E I du Pont de Nemours and Company, priority 2009, dated 2015)

How the values were obtained:
[1] = test system: spring barley (Hordeum vulgare); assay: Test C plant response; type: in vivo; settings: Preemergence, scale 0 to 100
[2] = test system: spring wheat (Triticum aestivum); assay: Test C plant response; type: in vivo; settings: Preemergence, scale 0 to 100

Cc1ccccc1-n1c(-c2ccccc2)ncc(C(=O)C2=C(O)CCCC2=O)c1=O [Compound 12]
0: Plant response rating: Barley, Spring ([1]; 62 g ai/ha) | Plant response rating: Barley, Spring ([1]; 125 g ai/ha) | Plant response rating: Barley, Spring ([1]; 16 g ai/ha) | Plant response rating: Barley, Spring ([1]; 31 g ai/ha) | Plant response rating: Wheat, Spring ([2]; 62 g ai/ha) | Plant response rating: Wheat, Spring ([2]; 125 g ai/ha) | Plant response rating: Wheat, Spring ([2]; 16 g ai/ha) | Plant response rating: Wheat, Spring ([2]; 31 g ai/ha)
